Experimental data reported in patent publication US20240124432A1, “HERBICIDAL COMPOUNDS” (SYNGENTA CROP PROTECTION AG, priority 2020, published 2024).

What was measured:
Assay type in all cases: in vivo
[1] = system: AMAPA; assay: Pre-emergence biological efficacy; settings: Amaranthus palmeri, 312 h, evaluated after 13 days, read-out: damage to plant (100=total damage to plant; 0=no damage to plant)
Method in brief: (§1)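 Scoring: visual plant damage at 13 days after spraying, 100 = total damage, 0 = none. Pots were sprayed 1 day post-sowing with an aqueous dilution (0.2% Genapol XO80) of an IF50/acetone formulation; glasshouse 24/18 °C, 15 h light, 50% humidity, watered twice daily.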

[2] = system: ECHCG; assay: Pre-emergence biological efficacy; settings: Echinochloa crus-galli, 312 h, evaluated after 13 days, read-out: damage to plant (100=total damage to plant; 0=no damage to plant)
Method in brief: as §1

[3] = system: EPHHL; assay: Pre-emergence biological efficacy; settings: Euphorbia heterophylla, 312 h, evaluated after 13 days, read-out: damage to plant (100=total damage to plant; 0=no damage to plant)
Method in brief: as §1

[4] = system: IPOHE; assay: Pre-emergence biological efficacy; settings: Ipomoea hederacea, 312 h, evaluated after 13 days, read-out: damage to plant (100=total damage to plant; 0=no damage to plant)
Method in brief: as §1

[5] = system: LOLPE; assay: Pre-emergence biological efficacy; settings: Lolium perenne, 312 h, evaluated after 13 days, read-out: damage to plant (100=total damage to plant; 0=no damage to plant)
Method in brief: as §1

[6] = system: SETFA; assay: Pre-emergence biological efficacy; settings: Setaria faberi, 312 h, evaluated after 13 days, read-out: damage to plant (100=total damage to plant; 0=no damage to plant)
Method in brief: as §1

[7] = system: AMAPA; assay: Post-emergence biological efficacy; settings: Amaranthus palmeri, 312 h, evaluated after 13 days, read-out: damage to plant (100=total damage to plant; 0=no damage to plant)
Method in brief: (§2)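 Pot-grown plants were raised 14 days in a glasshouse (24/19 °C day/night, 16 h light), then sprayed post-emergence with an aqueous dilution of a 50 g/l IF50 formulation stock in 0.2% Genapol XO80. They were kept at 24/18 °C, 15 h light, 50% humidity, and visually scored for damage after 13 days (0 = none, 100 = total).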

[8] = system: CHEAL; assay: Post-emergence biological efficacy; settings: Chenopodium album, 312 h, evaluated after 13 days, read-out: damage to plant (100=total damage to plant; 0=no damage to plant)
Method in brief: as §2

[9] = system: DIGSA; assay: Post-emergence biological efficacy; settings: Digitaria sanguinalis, 312 h, evaluated after 13 days, read-out: damage to plant (100=total damage to plant; 0=no damage to plant)
Method in brief: as §2

[10] = system: ECHCG; assay: Post-emergence biological efficacy; settings: Echinochloa crus-galli, 312 h, evaluated after 13 days, read-out: damage to plant (100=total damage to plant; 0=no damage to plant)
Method in brief: as §2

[11] = system: ELEIN; assay: Post-emergence biological efficacy; settings: 312 h, evaluated after 13 days, read-out: damage to plant (100=total damage to plant; 0=no damage to plant)
Method in brief: as §2

[12] = system: EPHHL; assay: Post-emergence biological efficacy; settings: Euphorbia heterophylla, 312 h, evaluated after 13 days, read-out: damage to plant (100=total damage to plant; 0=no damage to plant)
Method in brief: as §2

[13] = system: IPOHE; assay: Post-emergence biological efficacy; settings: Ipomoea hederacea, 312 h, evaluated after 13 days, read-out: damage to plant (100=total damage to plant; 0=no damage to plant)
Method in brief: as §2

[14] = system: LOLPE; assay: Post-emergence biological efficacy; settings: Lolium perenne, 312 h, evaluated after 13 days, read-out: damage to plant (100=total damage to plant; 0=no damage to plant)
Method in brief: as §2

[15] = system: SETFA; assay: Post-emergence biological efficacy; settings: Setaria faberi, 312 h, evaluated after 13 days, read-out: damage to plant (100=total damage to plant; 0=no damage to plant)
Method in brief: as §2

Compound | pest or weed control at 250 g/ha [1] [%] | pest or weed control at 250 g/ha [2] [%] | pest or weed control at 250 g/ha [3] [%] | pest or weed control at 250 g/ha [4] [%] | pest or weed control at 250 g/ha [5] [%] | pest or weed control at 250 g/ha [6] [%] | pest or weed control at 250 g/ha [7] [%] | pest or weed control at 250 g/ha [8] [%] | pest or weed control at 250 g/ha [9] [%] | pest or weed control at 250 g/ha [10] [%] | pest or weed control at 250 g/ha [11] [%] | pest or weed control at 250 g/ha [12] [%] | pest or weed control at 250 g/ha [13] [%] | pest or weed control at 250 g/ha [14] [%] | pest or weed control at 250 g/ha [15] [%]
CCOC(=O)C1(C)CC(c2cc(-c3cncc(C(F)(F)F)n3)c(F)cc2Cl)=NO1 (stereo not drawn) [Compound 1-727, Ethyl 3-[2-chloro-4-fluoro-5-[6-(trifluoromethyl)pyrazin-2-yl]phenyl]-5-methyl-4H-isoxazole-5-carboxylate] | 0 | 30 | 10 | 20 | 0 | 10 | 70 | 70 | 70 | 90 | 80 | 70 | 100 | 20 | 90
CCOC(=O)C1(C)CC(c2cc(-c3cnc(C)cn3)c(F)cc2Cl)=NO1 (stereo not drawn) [Compound 1-739, Ethyl 3-[2-chloro-4-fluoro-5-(5-methylpyrazin-2-yl)phenyl]-5-methyl-4H-isoxazole-5-carboxylate] | 0 | 0 | 0 | 0 | 0 | 0 | 50 | 50 | 30 | 30 | 50 | 40 | 50 | 0 | 30
CCOC(=O)C1(C)CC(c2cc(-c3cnc4ccc(C(F)(F)F)cc4n3)c(F)cc2Cl)=NO1 (stereo not drawn) [Compound 1-763, Ethyl 3-[2-chloro-4-fluoro-5-[7-(trifluoromethyl)quinoxalin-2-yl]phenyl]-5-methyl-4H-isoxazole-5-carboxylate] | 0 | 0 | 0 | 0 | 0 | 0 | 20 | 20 | 0 | 0 | 0 | 20 | 10 | 0 | 0
CCOC(=O)C1(C)CC(c2cc(-c3nccnc3C)c(F)cc2Cl)=NO1 (stereo not drawn) [Compound 1-775, Ethyl 3-[2-chloro-4-fluoro-5-(3-methylpyrazin-2-yl)phenyl]-5-methyl-4H-isoxazole-5-carboxylate] | 0 | 0 | 0 | 0 | 0 | 0 | 60 | 60 | 20 | 20 | 50 | 40 | 30 | 0 | 50
CCOC(=O)C1(C)CC(c2cc(-c3nc(C)cnc3C)c(F)cc2Cl)=NO1 (stereo not drawn) [Compound 1-787, Ethyl 3-[2-chloro-5-(3,6-dimethylpyrazin-2-yl)-4-fluoro-phenyl]-5-methyl-4H-isoxazole-5-carboxylate] | 10 | 20 | 10 | 10 | 20 | 20 | 50 | 60 | 40 | 40 | 60 | 40 | 50 | 20 | 40
CCOC(=O)C1(C)CC(c2cc(-c3ncc(C(F)(F)F)nc3Cl)c(F)cc2Cl)=NO1 (stereo not drawn) [Compound 1-811, Ethyl 3-[2-chloro-5-[3-chloro-5-(trifluoromethyl)pyrazin-2-yl]-4-fluoro-phenyl]-5-methyl-4H-isoxazole-5-carboxylate] | 100 | 70 | 100 | 0 | 10 | 50 | 80 | 60 | 40 | 50 | 90 | 80 | 70 | 70 | 100
CCOC(=O)C1(C)CC(c2cc(-c3nccnc3C(F)(F)F)c(F)cc2Cl)=NO1 (stereo not drawn) [Compound 1-823, Ethyl 3-[2-chloro-4-fluoro-5-[3-(trifluoromethyl)pyrazin-2-yl]phenyl]-5-methyl-4H-isoxazole-5-carboxylate] | 0 | 20 | 40 | 90 | 20 | 20 | 60 | 60 | 50 | 70 | 30 | 60 | 60 | 10 | 60
CCOC(=O)C1(C)CC(c2cc(-c3cnc4c(c3)OC(F)(F)O4)ccc2C#N)=NO1 (stereo not drawn) [Compound 2-451, Ethyl 3-[2-cyano-5-(2,2-difluoro-[1,3]dioxolo[4,5-b]pyridin-6-yl)phenyl]-5-methyl-4H-isoxazole-5-carboxylate] | 90 | 60 | 0 | 0 | 40 | 70 | 40 | 50 | 50 | 30 | 70 | 70 | 30 | 20 | 40
